Reference: patent US20110117166A1, “IMPLANTABLE BONE GRAFT MATERIALS” (AFFINERGY, INC., priority 2009, published 2011)
Ends that are not written are not given here.

Columns and labels:
[1] = biological target: T1, BMP-7 (Homo sapiens, UniProt P18075); experiment: ELISA of BMP-7 bound to immobilized BMP binding peptides; conditions: FIG. 14B
T1 sequence (P18075 293-431): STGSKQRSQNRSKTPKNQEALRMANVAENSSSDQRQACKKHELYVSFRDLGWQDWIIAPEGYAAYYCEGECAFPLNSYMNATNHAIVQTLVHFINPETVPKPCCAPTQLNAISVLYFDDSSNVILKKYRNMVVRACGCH

[2] = tested on: C2C12 cells; experiment: Alkaline phosphatase secretion by C2C12 cells in response to BMP-2 with BMP binding peptide in solution; assay type: cell-based; conditions: peptide 0-3500 nM, 3 days, FIG. 16
Method: In an experiment to test the biological activity of BMP-2 delivered by BMP binding peptide, alkaline phosphatase secreted by C2C12 cells in response to BMP-2 was measured in the presence and absence of BMP binding peptide in solution. C2C12 cells were incubated with BMP-2 (35 nM) and BMP binding peptide at a concentration ranging from 0-3500 nM. The C2C12 cells were incubated with the BMP-2 and BMP binding peptide for 3 days and the alkaline phosphatase assay was performed as described herein above.

[3] = tested on: rat calvarial defect; experiment: Rat calvarial defect model of bone healing (μCT and histology); assay type: in vivo; conditions: conclusion from saline-hydrated groups
Method: The ability of each of the bone void filler collagen/TCP composites (unmodified and BMP binding peptide modified at 5-15 μmol peptide/g collagen described in Example 5) to speed bone healing was assessed in a rat calvarial defect model. A defect was introduced into male Sprague Dawley rats (n=8) as described previously (Poehling, et. al, J Periodontol, 2006, 77:1582-90). A full thickness circular defect, 6.8 mm in diameter, was made in the parietal bone, centered across the midline. The disc of bone was removed, and the void was filled with bone graft substitute material hydrated with or without BMA harvested from the tibia (saline was used for hydration without BMA). […] The calvaria were removed and analyzed by micro-computed tomography (μCT) to provide measurements of bone density (SCANCO MEDICAL; Wayne, Pa.). […] For each sample, 6 sections evenly distributed across the defect were scored by two independent observers, blind to the treatment groups. The slides were scored for osteogenic cellular activity, new bone area, and new bone maturity according to the following procedure. For osteogenic cellular activity, fibroblasts/loose connective tissue, immature cartilage progenitors, immature bone progenitors, giant cells, osteoclasts, osteoblasts, and osteocytes were counted and scored according to the following scale: 1=Rare; 2=Few; 3=Moderate; and 4=Dense. […]

[4] = biological target: T2, BMP-2 (Homo sapiens, UniProt P12643); experiment: ELISA of BMP-2 bound to biotinylated peptides immobilized on streptavidin plates; assay type: binding; conditions: FIG. 14A; BMP-2 200 nM, 20 nM and 2 nM, 45 minutes
T2 sequence (P12643 283-396): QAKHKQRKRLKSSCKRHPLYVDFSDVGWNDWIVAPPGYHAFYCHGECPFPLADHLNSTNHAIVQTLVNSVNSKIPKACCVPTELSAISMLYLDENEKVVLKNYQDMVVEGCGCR
Method: BMP binding peptides SEQ ID NOs:1-4 & 8-10 were identified as described in US Patent Application Publication No. US20060051395A1. Briefly, the peptides were identified by phage display using immobilized BMP-2 as a substrate for the phage library selections. Synthetic peptides SEQ ID NOs: 1-2 were determined to bind to BMP-2 with a relative EC50 value of 0.8 nM and 0.9 nM, respectively (data not shown). Separately, the relative binding affinity of peptides SEQ ID NOs: 1-2 for BMP-2 is shown in FIG. 14A (SEQ ID NO: 1 is denoted as P9 and SEQ ID NO: 2 is denoted as P10). Briefly, the results shown in FIG. 14A were generated by immobilizing biotinylated BMP binding peptides SEQ ID NOs:1 & 2 on streptavidin coated plates. Serial dilutions of 200 nM, 20 nM and 2 nM of BMP-2 were incubated with the immobilized BMP binding peptides for 45 minutes, washed, and bound BMP quantified using ELISA.

| Substance | relative affinity for BMP-7 [1] | effect on BMP-2 biological activity (alkaline phosphatase secretion) ([2]; BMP-2 35 nM) | BMP-2 activity of the peptide on its own (alkaline phosphatase secretion) [2] | bioactivity of the peptide itself in bone formation [3] | relative affinity for BMP-2 [4] |
| --- | --- | --- | --- | --- | --- |
| GGALGFPLKGEVVEGWA-NH2 (C-terminus assumed) [SEQ ID NO: 2] | high relative affinity | does not interfere with the biological activity of BMP-2 | does not have BMP-2 activity on its own | does not possess bioactivity itself | high relative affinity |
| GGGAWEAFSSLSGSRV-NH2 (C-terminus assumed) [SEQ ID NO: 1] | high relative affinity |  |  |  | high relative affinity |
